Source: patent EP0207193A2, “Synergetic combination of flupirtin and 4-acetamido-phenol” (Degussa Aktiengesellschaft, priority 1985, dated 1987)
Where two headings read alike, the source gives them in different places.

Tested on: Albino-Ratte
Assay: Randall-Selitto test (analgesic effect, determination of synergism)
Format: in vivo
Details: per os; for Steigerung der analgetischen Wirksamkeit um den Faktor: ED50 alone versus ED50 in the combination, rat; for ED50: Rattus norvegicus, po
Text: Die erfindungsgemäße Komtination zeigt beispielsweise im Randall-Selitto-Test einen Synergismus der analgetischen Wirkung, die gegenüber der Analgesie des reinen Flupirtin (Das Fiupirt^in wird stets als Maleat, Gluconat oder Hydrochlorid untersucht.) und dem reinen 4-Acetamido-phenol überadditiv gesteigert ist.
Die Wirkung der erfindungsgemäßen Kombination geht beispielsweise aus folgenden Versuchen hervor: Diese Untersuchungen erfolgten im Randall-Selitto-Test an der Albino-Ratte. Hierbei wird sowohl die Flupirtin-Dosis (Hydrochlorid) konstant gehalten, als auch bei konstanter Dosis des 4-Acetamido-phenols die Flupirtin-. Dosis geändert und jeweils im ersten Fall die ED50 der analgetischen Wirkung des 4-Acetamido-phenols und im zweiten Fall die analgetische Hauptwirkung des Flupirtins in der Kombination bestimmt (Methode der Bestimmung des Synergismus nach Forth, Henschler und Rummel, Lehrbuch Pharmakologie und Toxikologie, Ausgabe 1980, Seite 65; Wissenschaftsverlag, Bibliographisches Institut Mannheim, Wien und Zürich).
So wird beispielsweise in dem vorstehend angegebenen Test die analgetisch wirksame ED50 des Flupirtins von 30,94 mg/kg per os auf 1,65 mg/kg und die analgetisch wirksame ED50 des 4-Acetamido-phenols (Paracetamol) von 71,47 mg/kg auf 0,6 mg/kg per os gesenkt. In diesem Test erfolgt also eine Steigerung der analgetischen Wirksamkeit des Flupirtins um den Faktor 18 und hinsichtlich der analgetischen Wirkung des Paracetamols um den Faktor 119.

Structure (SMILES): CC(=O)Nc1ccc(O)cc1 [4-Acetamido-phenol]
- Steigerung der analgetischen Wirksamkeit um den Faktor: 119
- ED50 (4-Acetamido-phenol alone, read-out: analgetisch wirksame ED50 des 4-Acetamido-phenols (Paracetamol)): 71.5 mg/kg
- ED50 (4-Acetamido-phenol in combination with a constant dose of Flupirtin (hydrochloride), read-out: analgetisch wirksame ED50 des 4-Acetamido-phenols (Paracetamol)): 0.6 mg/kg

Structure (SMILES): CCOC(=O)Nc1ccc(NCc2ccc(F)cc2)nc1N [Flupirtin, 2-Amino-3-carbethoxyamino-6-(4-fluor-be-nzylamino)-pyridin]
- Steigerung der analgetischen Wirksamkeit um den Faktor: 18
- ED50 (Flupirtin (hydrochloride) in combination with a constant dose of 4-Acetamido-phenol, read-out: analgetisch wirksame ED50 des Flupirtins): 1.65 mg/kg
- ED50 (Flupirtin alone (hydrochloride), read-out: analgetisch wirksame ED50 des Flupirtins): 30.9 mg/kg
